Like-named read-outs stand apart in the source and are kept apart here.
B1: GDF2 (BMP9): member of BMP family and the TGF-B superfamily (protein, UniProt Q9UK05 320-429, looked up)
Growth/differentiation factor …: SAGAGSHCQKTSLRVNFEDIGWDSWIIAPKEYEAYECKGGCFFPLADDVTPTKHAIVQTLVHLKFPTKVGKACCVPTKLSPISVLYKDDMGVPTLKYHYEGMSVAECGCR
B2: Wnt3a: WNT family secreted signaling protein; FRIZZLED activator (protein, UniProt P56704 19-352, looked up)
Protein Wnt-3a: SYPIWWSLAVGPQYSSLGSQPILCASIPGLVPKQLRFCRNYVEIMPSVAEGIKIGIQECQHQFRGRRWNCTTVHDSLAIFGPVLDKATRESAFVHAIASAGVAFAVTRSCAEGTAAICGCSSRHQGSPGKGWKWGGCSEDIEFGGMVSREFADARENRPDARSAMNRHNNEAGRQAIASHMHLKCKCHGLSGSCEVKTCWWSQPDFRAIGDFLKDKYDSASEMVVEKHRESRGWVETLRPRYTYFKVPTERDLVYYEASPNFCEPNPETGSFGTRDRTCNVSSHGIDGCDLLCCGRGHNARAERRREKCRCVFHWCCYVSCQECTRVYDVHTCK
B3: Nodal: 13 kDa member of the TGF-B superfamily (protein, UniProt Q96S42 238-347, looked up)
Nodal homolog: HHLPDRSQLCRKVKFQVDFNLIGWGSWIIYPKQYNAYRCEGECPNPVGEEFHPTNHAYIQSLLKRYQPHRVPSTCCAPVKTKPLSMLYVDNGRVLLDHHKDMIVEECGCL
B4: Anti mullerian hormone: member of the TGF-B gene family (protein, UniProt P03971 452-560, looked up)
Muellerian-inhibiting factor: SAGATAADGPCALRELSVDLRAERSVLIPETYQANNCQGVCGWPQSDRNPRYGNHVVLLLKMQVRGAALARPPCCVPTAYAGKLLISLSEERISAHHVPNMVATECGCR

Key:
calcium channel = calcium channel blocker; cited from earlier work
ARG1 = experiment: RNA-seq, ARG1 expression in compound-treated primary human hepatocytes; assay type: cell-based
[1] = tested on: multiple urea cycle-related genes; experiment: RNA-seq, compounds that modulate multiple urea cycle-related genes; assay type: cell-based; conditions: primary human hepatocytes; for Up-regulated Genes: urea cycle-related genes significantly increased by the compound
CPS1 = experiment: RNA-seq, CPS1 expression in compound-treated primary human hepatocytes; assay type: cell-based
ASL = experiment: RNA-seq, ASL expression in compound-treated primary human hepatocytes; assay type: cell-based
OTC [2] = experiment: OTC expression modulated by compounds (OTC/Geo Mean of HKs, DMSO = 1); assay type: cell-based, human; conditions: OTC expression; compound at 10 uM final concentration
HSP90 = conditions: cited from earlier work
SLC25A15 = experiment: RNA-seq, SLC25A15 expression in compound-treated primary human hepatocytes; assay type: cell-based; conditions: compounds that significantly increase SLC25A15 expression
ASS1 = experiment: RNA-seq, ASS1 expression in compound-treated primary human hepatocytes; assay type: cell-based
OTC [3] = experiment: RNA-seq, OTC expression in compound-treated primary human hepatocytes; assay type: cell-based
OTC [4] = experiment: siRNA transfection of primary human hepatocytes, OTC qPCR; assay type: cell-based; conditions: siRNA 10 nM, 48hrs, vs control non-targeting siRNA
Procedure: Primary human hepatocytes were reversed transfected with 6pmol siRNA using RNAiMAX Reagent (ThermoFisher Cat No13778030) in 24 well format, 1 ul per well (for a final cone of 10 nM). The following morning, the medium was removed and replaced with Modified Maintenance Medium (see above) for an additional 24 hrs. The entire treatment lasted 48hrs, at which point the medium was removed and replaced with RLT Buffer for RNA extraction (Qiagen RNeasy 96 QIAcube HT Kit Cat#74171). siRNAs were obtained from Dharmacon and are a pool of four siRNA duplex all designed to target distinct sites within the specific gene of interest (known as “SMARTpool”). They were tested against the control non-targeting siRNA D-001206-13-05.
Isolated RNA was processed for cDNA synthesis and qPCR as described above. Taqman assay used for OTC measurement: Hs00166892_m1

[5] = RNA-seq, primary human hepatocytes, compounds that significantly increase NAGS expression
[6] = RNA-seq, primary human hepatocytes, compounds that significantly increase ARG1 expression
[7] = RNA-seq, primary human hepatocytes, compounds that significantly increase ASL expression

| Molecule | ARG1 expression, Fold change (Log 2) vs untreated (ARG1; [6]) | number of urea cycle genes whose expression was significantly up-regulated [1] | Up-regulated Genes [1] | Fold change (Log 2) vs untreated (CPS1) | SLC25A15 expression, Fold change (Log 2) vs untreated (SLC25A15) | Fold change (Log 2) vs untreated (ASS1) | Fold change (Log 2) vs untreated (OTC [3]) | also measured |
| --- | --- | --- | --- | --- | --- | --- | --- | --- |
| CCOC(=O)C1=C(COCCN)NC(C)=C(C(=O)OC)C1c1ccccc1Cl (stereo not shown) [Amlodipine Besylate] |  |  |  |  |  |  |  | NAGS expression, Fold change (Log 2) vs untreated (NAGS; [5]): 0.73 Log 2; IC50 (calcium channel): 1.9 nM |
| Cc1cc(-c2nc(-c3ccc(OC(F)(F)F)cc3)no2)nn1Cc1ccnc(N2CCN(C3CC3)CC2)c1 [BAY 87-2243] | 1.09 Log 2 | three | CPS1, ASL, ARG1 | 1.81 Log 2 |  |  |  | ASL expression, Fold change (Log 2) vs untreated (ASL; [7]): 0.58 Log 2 |
| C[C@]12C[C@H](O)[C@H]3[C@@H](CCC4=CC(=O)CC[C@@]43C)[C@@H]1CC[C@@H]2C(=O)CO [Corticosterone] |  |  |  |  | 0.96 Log 2 |  |  |  |
| C[C@]12CC[C@H]3[C@@H](CCC4=CC(=O)CC[C@@]43C)[C@@H]1CC[C@@H]2C(=O)CO [Deoxycorticosterone] | 1.37 Log 2 | four | CPS1, ASS1, ARG1, SLC25A15 | 3.79 Log 2 |  | 0.6 Log 2 |  |  |
| CNC[C@H](O)c1ccc(O)c(O)c1 [Epinephrine] |  | five |  | 4.85 Log 2 | 1.14 Log 2 | 1.08 Log 2 |  | ARG1 expression, Fold change (Log 2) vs untreated (ARG1): 2.28 Log 2; ASL expression, Fold change (Log 2) vs untreated (ASL): 0.6 Log 2 |
| COc1cccc2c1C(=O)c1c(O)c3c(c(O)c1C2=O)C[C@@](O)(/C(CO)=N/NC(=O)CCCCCN1C(=O)C=CC1=O)C[C@@H]3O[C@H]1C[C@H](N)[C@H](O)[C@H](C)O1 [INNO-206 (aldoxorubicin), aldoxorubicin] |  | three | NAGS, ASS1, OTC |  |  | 0.58 Log 2 | 0.87 Log 2 | Max Value (OTC/Geo Mean of HKs; DMSO = 1) (OTC [2]): 2.36; NAGS expression, Fold change (Log 2) vs untreated (NAGS; [5]): 1.63 Log 2 |
| O=C1NC(=O)/C(=C/c2cccc(C(F)(F)F)c2)S1 [SMI-4a] |  |  |  |  |  | 0.69 Log 2 |  | NAGS expression, Fold change (Log 2) vs untreated (NAGS): 1.25 Log 2 |
| CN(C)[C@@H]1C(O)=C(C(N)=O)C(=O)[C@@]2(O)C(O)=C3C(=O)c4c(O)c(NC(=O)CN5CCCC5)cc(F)c4C[C@H]3C[C@@H]12 [TP-434 (Eravacycline), Eravacycline] |  |  |  |  |  | 0.76 Log 2 |  | NAGS expression, Fold change (Log 2) vs untreated (NAGS; [5]): 1.5 Log 2 |
| O=C1CCC(N2C(=O)c3ccccc3C2=O)C(=O)N1 (stereo not shown) [Thalidomide] | 1.16 Log 2 | five | NAGS, CPS1, ALS, OTC, ARG1 | 1.02 Log 2 |  |  | 1.21 Log 2 | NAGS expression, Fold change (Log 2) vs untreated (NAGS): 1.1 Log 2; ASL expression, Fold change (Log 2) vs untreated (ASL; [7]): 0.56 Log 2 |
| COc1nc(N)nc2c1ncn2[C@@H]1O[C@H](COP(=O)(N[C@@H](C)C(=O)OCC(C)(C)C)Oc2cccc3ccccc23)[C@@H](O)[C@@]1(C)O (stereo partly shown) [bms-986094 (inx-189)] |  |  |  |  | 1.18 Log 2 |  |  |  |
| Activin | 2.01 Log 2 | four | NAGS, CPS1, OTC, ARG1 | 2.23 Log 2 |  |  | 0.94 Log 2 | NAGS expression, Fold change (Log 2) vs untreated (NAGS): 0.69 Log 2 |
| FGF: Fibroblast Growth Factor-acidic (FGF-1); FGFR activator | 1.24 Log 2 | three | CPS1, OTC, ARG1 | 1.72 Log 2 |  |  | 0.56 Log 2 |  |
| HGF/SF: Hepatocyte Growth Factor, scatter factor; c-Met activator | 1.51 Log 2 | four | NAGS, CPS1, OTC, ARG1 | 2.02 Log 2 |  |  | 0.56 Log 2 | NAGS expression, Fold change (Log 2) vs untreated (NAGS): 0.56 Log 2 |
| IGF-1: Insulin-like growth factor I; IGF-1R activator | 1.89 Log 2 | four | CPS1, OTC, ARG1, SLC25A15 | 2.22 Log 2 | 0.8 Log 2 |  | 0.76 Log 2 | Max fold change in OTC (OTC [4]): 1.69 |
| IRF1 (DNA GAAAGTGAAAGT; siRNA; chemistry not fully specified) |  |  |  |  |  |  |  | Max fold change in OTC (OTC [4]): 1.70 |
| PDGF | 1.85 Log 2 | four | CPS1, OTC, ARG1, SLC25A15 | 2.12 Log 2 | 0.71 Log 2 |  | 0.77 Log 2 |  |
| TNF-α | 1.87 Log 2 | four | CPS1, ASS1, OTC, ARG1 | 2.31 Log 2 |  | 0.58 Log 2 | 0.87 Log 2 |  |
| Yy1 |  |  |  |  |  |  |  | Max fold change in OTC (OTC [4]): 1.71 |
| B1 | 1.79 Log 2 | five |  | 3.46 Log 2 | 1.09 Log 2 | 1.34 Log 2 |  | NAGS expression, Fold change (Log 2) vs untreated (NAGS): 0.63 Log 2 |
| B2 | 2.07 Log 2 | four | CPS1, OTC, ARG1, SLC25A15 | 2.6 Log 2 | 0.7 Log 2 |  | 0.92 Log 2 |  |
| B3 | 2.05 Log 2 | three | CPS1, OTC, ARG1 | 2.44 Log 2 |  |  | 0.68 Log 2 |  |
| B4 | 2.06 Log 2 | three | CPS1, OTC, ARG1 | 2.35 Log 2 |  |  | 0.81 Log 2 |  |

Reference: US20200316038A1, “METHODS AND COMPOSITIONS FOR TREATING UREA CYCLE DISORDERS, IN PARTICULAR OTC DEFICIENCY” (CAMP4 THERAPEUTICS CORPORATION, priority 2017, published 2020)
